Among the data in US8119675B2, “Benzimidazole derivatives” (Merck Patent GmbH, priority 2007, dated 2012) are IC50 values, retold here.

In one experiment the target is T1, SGLT2 (Homo sapiens, UniProt P31639).
T1 construct: expressed in transfected cells
T1 sequence (P31639 1-672): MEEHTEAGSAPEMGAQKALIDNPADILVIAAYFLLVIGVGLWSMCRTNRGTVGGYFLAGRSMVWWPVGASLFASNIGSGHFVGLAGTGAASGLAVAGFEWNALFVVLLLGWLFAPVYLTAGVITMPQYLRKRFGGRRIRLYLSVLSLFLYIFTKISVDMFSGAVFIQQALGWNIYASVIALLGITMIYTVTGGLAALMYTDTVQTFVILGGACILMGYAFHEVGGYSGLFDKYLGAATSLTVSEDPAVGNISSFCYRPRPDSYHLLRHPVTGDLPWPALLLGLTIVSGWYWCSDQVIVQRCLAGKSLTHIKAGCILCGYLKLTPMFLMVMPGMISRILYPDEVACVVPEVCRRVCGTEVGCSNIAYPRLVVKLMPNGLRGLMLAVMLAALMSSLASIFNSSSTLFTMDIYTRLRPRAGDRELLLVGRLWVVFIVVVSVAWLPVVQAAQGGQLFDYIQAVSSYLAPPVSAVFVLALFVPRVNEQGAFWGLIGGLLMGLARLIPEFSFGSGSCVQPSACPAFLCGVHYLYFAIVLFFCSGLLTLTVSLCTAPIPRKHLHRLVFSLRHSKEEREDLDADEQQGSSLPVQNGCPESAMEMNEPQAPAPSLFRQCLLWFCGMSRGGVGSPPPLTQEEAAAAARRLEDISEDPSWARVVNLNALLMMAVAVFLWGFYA
In words: 14C-AMG uptake in BHK cells transfected with SGLT2 (96-well cell-based assay). The note with it: 2 mM AMG, 37° C., 90 min. The text has this:
(§1) The compounds can be tested for their SGLT inhibition properties by means of BHK cells expressing SGLT1 and SGLT2. The production of the cells and the testing can be carried out as described below.
To construct the SGLT2 expression vector (KL224), the SLC5A2 gene (homologous to NM_003041) was amplified from a cDNA library using standard PCR technology and cloned over NheI/XhoI sites into PCI-neo expression vector (Promega) containing neomycin as a selection marker. In this vector, transcription uses the enhancer/promoter of human cytomegalovirus and the SV40 polyadenylation signal.
(§2) The final vector KL224 together with an additional vector containing a dihydrofolate reductase gene as a selection marker was introduced into cells. Transfection into BHK21 cells (ATCC CCL-10), cultivated in DMEM medium (GIBCO/BRL), supplemented with 10% foetal calf serum (FCS) and 20 mM glutamine, was carried out using calcium phosphate transfections according to Graham, F. L. and van der Ebb, A. J. (1973), Virology 52: 456 with 5-20 μg of uncut plasmids for 10^7 cells. Stable transfectants were selected in medium containing 1 mg/ml of G418 (GIBCO/BRL) and 20-5000 nM methotrexate as final concentration, where only cells which expressed the neomycin gene and overexpressed the dhfr gene were able to grow. After growth for 2-3 weeks, the cells were cloned (0.5 cells/well) and the clones were investigated for SGLT expression in radioactivity uptake tests.
(§3) The uptake of ^14C-α-methyl-D-glucopyranoside (AMG) in, for example, Xenopus oocytes injected with the corresponding cRNA has been described in principle (for example Wen-Sen Lee et al. (1994), J. Biol. Chem. 269, 12032-12039; Guofeng You et al. (1995), J. Biol. Chem. 270, 29365-29371).
(§4) A 96-well cell-based assay was developed and adapted to HTS requirements:
(§5) BHK cells (transfected with SGLT1 or SGLT2) were seeded into 96-well microtitre plates (Cultureplates, Perkin Elmer). After at least 24 h, medium was removed, and the cell layer was washed with assay buffer (140 mM NaCl, 2 mM KCl, 1 mM CaCl2, 1 mM MgCl2, 10 mM HEPES, 5 mM Tris, adjusted to pH 7.4 using 1 M KOH). After addition of 40 μl of assay buffer, 50 μl of AMG (50 μM for SGLT1 and 2 mM for SGLT2) in the presence or absence of compounds, the cells were incubated in a total volume of 100 μl at 37° C. for 90 min. Supernatant was removed by suction and discarded. Cells were washed and lysed by addition of 50 μl of water. After 10 min at room temperature, 200 μl of Micrsoscint 40 (Perkin Elmer) were added. The radioactivity was counted in a Topcount microplate scintillation counter (Perkin Elmer). The non-specific uptake was determined in sodium-free assay buffer (266 mM sucrose, 2 mM KCl, 1 mM CaCl2, 1 mM MgCl2, 10 mM HEPES, 5 mM Tris, adjusted to pH 7.4 using 1 M KOH).

The next experiment concerns the target T2, SGLT1 (Homo sapiens, UniProt P13866).
T2 construct: expressed in transfected cells
T2 sequence (P13866 1-664): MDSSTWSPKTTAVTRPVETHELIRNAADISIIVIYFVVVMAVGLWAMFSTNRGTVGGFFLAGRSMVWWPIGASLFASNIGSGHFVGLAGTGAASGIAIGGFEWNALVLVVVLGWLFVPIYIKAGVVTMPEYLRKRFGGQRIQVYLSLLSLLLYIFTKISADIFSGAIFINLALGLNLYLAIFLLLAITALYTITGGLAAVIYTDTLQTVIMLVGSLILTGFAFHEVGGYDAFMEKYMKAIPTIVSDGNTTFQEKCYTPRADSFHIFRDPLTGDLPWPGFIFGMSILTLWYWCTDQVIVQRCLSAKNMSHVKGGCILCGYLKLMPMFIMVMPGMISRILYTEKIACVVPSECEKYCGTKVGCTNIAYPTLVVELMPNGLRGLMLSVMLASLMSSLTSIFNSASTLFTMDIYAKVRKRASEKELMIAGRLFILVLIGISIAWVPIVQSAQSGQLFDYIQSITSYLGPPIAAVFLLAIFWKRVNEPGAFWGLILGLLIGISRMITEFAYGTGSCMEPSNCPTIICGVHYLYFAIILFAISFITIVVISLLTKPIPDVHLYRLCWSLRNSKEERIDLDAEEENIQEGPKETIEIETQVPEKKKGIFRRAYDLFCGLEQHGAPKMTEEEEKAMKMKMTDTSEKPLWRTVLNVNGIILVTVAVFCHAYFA
In words: 14C-AMG uptake in BHK cells transfected with SGLT1 (96-well cell-based assay). The conditions noted are these: 50 μM AMG, 37° C., 90 min.
Description: as §1
To construct the SGLT1 expression vector (KL225), the SLC5A1 gene (homologous to NM_000343) was amplified from a cDNA library using standard PCR technology and cloned over NheI/XhoI sites into the pcDNA3.1 expression vector (Invitrogen) containing neomycin as a selection marker. In this vector, transcription uses the enhancer/promoter of human cytomegalovirus.
as §2, with “KL225” for “KL224”
as §3, §4, §5

Each structure is given as a SMILES string.

A word on the IC50: it is the concentration that inhibits the measured activity by half. As for `Cc1cccc(C)c1Cn1c(-c2ccccc2OCC(N)=O)nc2ccccc21` [Compound A2, 2-{2-[1-(2,6-dimethylbenzyl)-1H-benzimidazol-2-yl]-phenoxy}acetamide], the IC50 against SGLT2 is 0.01 to 1 µM; on SGLT1 it was over 10 µM.

On SGLT2, `Cc1cccc(C)c1Cn1c(-c2c(F)cccc2OCC(N)=O)nc2ccccc21` [Compound A3, 2-{2-[1-(2,6-Dimethylbenzyl)-1H-benzimidazol-2-yl]-3-fluorophenoxy}acetamide] returned an IC50 of 0.01 to 1 µM.

`Cc1cccc(C)c1Cn1c(-c2ccccc2OCC(N)=O)nc2ccc(F)cc21` [Compound A4, 2-{2-[1-(2,6-Dimethylbenzyl)-6-fluoro-1H-benzimidazol-2-yl]phenoxy}acetamide]: the values for the IC50 against SGLT2 and at SGLT1 were 0.01 to 1 µM and over 10 µM, respectively.

As to `Cc1cccc(C)c1Cn1c(-c2ccccc2OCC(N)=O)nc2cc(F)c(F)cc21` [Compound A5, 2-{2-[1-(2,6-Dimethylbenzyl)-5,6-difluoro-1H-benzimidazol-2-yl]phenoxy}acetamide], the half-maximal inhibitory concentration (IC50) against SGLT2 is 0.01 to 1 µM; on SGLT1, over 10 µM.

Consider `Cc1cc(C)c(Cn2c(-c3ccccc3OCC(N)=O)nc3ccc(F)cc32)c(C)c1` [Compound A6, 2-{2-[6-Fluoro-1-(2,4,6-trimethylbenzyl)-1H-benzimidazol-2-yl]phenoxy}acetamide], for which the IC50 on SGLT2 and against SGLT1 was over 10 µM throughout.

Take `Cc1ccccc1Cn1c(-c2ccccc2OCC(N)=O)nc2ccccc21` [Compound A7, 2-{2-[1-(2-Methylbenzyl)-1H-benzimidazol-2-yl]-phenoxy}acetamide]: the IC50 against SGLT2 is 1 to 10 µM; against SGLT1, over 10 µM.

Take `NC(=O)COc1ccccc1-c1nc2ccccc2n1Cc1ccccc1` [Compound A8, 2-[2-(1-Benzyl-1H-benzimidazol-2-yl)phenoxy]-acetamide]: the concentration for half-maximal inhibition (IC50) at SGLT2 and against SGLT1 was over 10 µM in each case.

Consider `NC(=O)COc1ccccc1-c1nc2ccccc2n1Cc1c(F)cccc1F` [Compound A9, 2-{2-[1-(2,6-Difluorobenzyl)-1H-benzimidazol-2-yl]phenoxy}acetamide], for which the IC50 is 1 to 10 µM at SGLT2 and over 10 µM against SGLT1.

With `Cc1cccc(C)c1Cn1c(-c2cccc(F)c2OCC(N)=O)nc2ccccc21` [Compound A10, 2-{2-[1-(2,6-Dimethylbenzyl)-1H-benzimidazol-2-yl]-6-fluorophenoxy}acetamide], the IC50 against SGLT2 is 0.01 to 1 µM; on SGLT1 it was over 10 µM.

In turn, `COc1cccc(-c2nc3ccccc3n2Cc2c(C)cccc2C)c1OCC(N)=O` [Compound A11, 2-{2-[1-(2,6-Dimethylbenzyl)-1H-benzimidazol-2-yl]-6-methoxyphenoxy}acetamide] displayed an IC50 against SGLT2 of 1 to 10 µM.

Consider `Cc1cccc(C)c1Cn1c(-c2cccc(C)c2OCC(N)=O)nc2ccccc21` [Compound A12, 2-{2-[1-(2,6-Dimethylbenzyl)-1H-benzimidazol-2-yl]-6-methylphenoxy}acetamide], for which the results for the IC50 against SGLT2 and against SGLT1 were 1 to 10 µM and over 10 µM, respectively.

Turning to `COc1ccc(-c2nc3ccccc3n2Cc2c(C)cccc2C)c(OCC(N)=O)c1` [Compound A13, 2-{2-[1-(2,6-Dimethylbenzyl)-1H-benzimidazol-2-yl]-5-methoxyphenoxy}acetamide], the IC50 was 1 to 10 µM on SGLT2 and over 10 µM at SGLT1.

For the compound `Cc1ccc(-c2nc3ccccc3n2Cc2c(C)cccc2C)c(OCC(N)=O)c1` [Compound A14, 2-{2-[1-(2,6-Dimethylbenzyl)-1H-benzimidazol-2-yl]-5-methylphenoxy}acetamide], the IC50 was 0.01 to 1 µM against SGLT2 and over 10 µM on SGLT1.

As to `COc1cccc(OCC(N)=O)c1-c1nc2ccccc2n1Cc1c(C)cccc1C` [Compound A15, 2-{2-[1-(2,6-Dimethylbenzyl)-1H-benzimidazol-2-yl]-3-methoxyphenoxy}acetamide], the IC50 at SGLT2 was 0.01 to 1 µM; against SGLT1 it was over 10 µM.

In the case of `Cc1cccc(C)c1Cn1c(-c2ncccc2OCC(N)=O)nc2ccccc21` [Compound A16, 2-{2-[1-(2,6-Dimethylbenzyl)-1H-benzimidazol-2-yl]pyridin-3-yloxy}acetamide], at SGLT2, the IC50 is over 10 µM.

Regarding `Cc1cccc(C)c1Cn1c(-c2ccc(F)cc2OCC(N)=O)nc2ccccc21` [Compound A17, 2-{2-[1-(2,6-Dimethylbenzyl)-1H-benzimidazol-2-yl]-5-fluorophenoxy}acetamide], the half-maximal inhibitory concentration (IC50) on SGLT2 is 0.01 to 1 µM; at SGLT1 it was over 10 µM.

On to `NC(=O)COc1ccccc1-c1nc2cc(Cl)ccc2n1Cc1c(Cl)cccc1Cl` [Compound A18, 2-{2-[5-Chloro-1-(2,6-dichlorobenzyl)-1H-benzimidazol-2-yl]phenoxy}acetamide], for which the IC50 at SGLT2 and at SGLT1 was over 10 µM throughout.

On to `NC(=O)COc1ccccc1-c1nc2cc(F)ccc2n1Cc1c(Cl)cccc1Cl` [Compound A19, 2-{2-[1-(2,6-Dichlorobenzyl)-5-fluoro-1H-benzimidazol-2-yl]phenoxy}acetamide], for which the IC50 was 1 to 10 µM at SGLT2 and over 10 µM on SGLT1.

The compound `CNc1nnc(-c2ccccc2-c2nc3ccccc3n2Cc2c(C)cccc2C)o1` [Compound A31] displayed an IC50 at SGLT2 of 0.01 to 1 µM.
